Source: US20040087842A1, “Fluorescent probes for saccharrides” (priority 2002, published 2004)
Like-named read-outs stand apart in the source and are kept apart here.

What was measured:
[1] = Solubility observation during titrations; format: physicochemical; conditions: methanol/water mixture
From the text: (§1) As discussed in the literature, the change is the intensity is attributed to the removal of the PET quenching due to the interaction between the boron and nitrogen atoms following the binding with glucose. In attempt to see the possible interference from macrobiosystems, titration curves have also been measured in presence of BSA and two detergents, one with a […] charged head group (HDTBr) and the other with a […] charged head group (SDS). BSA has a little effect on the titration curve of 7 and no effect for compound 8. The effect of BSA one compound 7 could be the result of an interaction between these two compounds. But, as the measurements are taken in a mixture of methanol and water, aggregation could not be neglect. […] To obtain a reproducible titration curve, vigorous stirring and time must be applied. In the presence of micelles, a complete inhibition of the intensity change is observed. […] For compound, the dissociation constant is in the millimolar range which is characteristic with the boronic acid group. For compound 8, this dissociation constant goes down to submillimolar range. This is due to the ability of both boronic acid group present on compound 8 to bind one molecule of glucose.

[2] = Stability and dissociation constants of 7 and 8 for D-glucose from steady-state and frequency-domain fluorescence; format: binding; conditions: 1:1 complex with D-glucose, methanol/phosphate buffer pH 7.7 (1:3)
From the text: as §1
Titration curves obtain with the mean lifetime and with the phase angle and modulation are shown in FIGS. 24 and 25 respectively for both compounds. […] This is due to the fact that the short lifetime component becomes less important and gradually the decay become more monoexponential with the addition of glucose. For compound 8, the combination of larger mean lifetime change and decrease of the short lifetime component result in a larger change in the phase angle and modulation with the presence of glucose. The apparent association constants obtained with the mean lifetime, phase angle and modulation show a decrease of an order in comparison with the KD obtained with the steady-state intensity change. […] This is due to the more important contribution of the complex (probe with analyte) on the lifetime because of the higher quantum yield and longer lifetime of the latter.
Steady-state fluorescence measurements were performed in 1 cm quartz cuvette in an ISS spectrofluorometer.
Frequency-domain (FD) measurements were performed using instrumentation described previously (65). The Domain (TD measurements can also be applied to the fluorescent compounds and methods of the present invention, as readily recognized by those of ordinary skill in the art. For Example 4, an amplitude modulated UV-LED was use as light source given and peak intensity centered around 370 nm. Emission was observed through a 415 nm cut-off and a 420 nm interference filter. The FD or TD intensity decay data were analyzed by nonlinear least squares in terms of the multiexponential model: [formula]
The values of (τ) are thought to be proportional to the quantum yield of the sample. […] Stability and association constants are determined according to the method described in the literature.

[3] = Emission intensity change of STBA after addition of sugars; conditions: phosphate buffer pH 8.0/methanol 2:1 (v/v), λex=310 nm
From the text: A decrease of the fluorescence emission is observed after the addition of sugar. The overall decrease is relatively weak, about 15%. Since the same intensity change is observed by increasing the pH, this change is attributed to the formation of the anionic form of the boronic acid group. […] The decrease of this pKa for the complex with sugar is also a general observation for this chelator group. […] At pH 8.0, STBA is present mostly in its neutral form. After the addition of sugar, the complex exists under the anionic form due to its lower pKa. This change from the neutral to the anionic form is at the origin of the intensity changes observed for STBA and the other complexes presented in this study. […]
Stilbene-4-boronic acid (STBA), 4′-cyanostilbene-4-boronic acid (CSTBA), 4′-methoxystilbene-4-boronic acid (MSTBA) and 4′-(dimethylamino)stilbene-4-boronic acid (DSTBA) were synthesized by the Wittig reaction between the para-substituted benzaldehydes and the para-boronic acid derivative of the benzyltriphenylphosphonium bromide. […] Absorption spectrawere recorded with a Cary 50 UV-Vis spectrophotometer from Varian. Emission spectra were recorded with a Varian Eclipse spectrofluorometer from Varian. […] For all measurements, the absorbances of the solutions were about 0.1 corresponding to a concentration range of 2-3×10^−6 M of the fluorophore. […]

[4] = Fluorescence titration curves against sugar (dissociation constant), D-galactose; format: binding
Method: (§2) Stilbene-4-boronic acid (STBA), 4′-cyanostilbene-4-boronic acid (CSTBA), 4′-methoxystilbene-4-boronic acid (MSTBA) and 4′-(dimethylamino)stilbene-4-boronic acid (DSTBA) were synthesized by the Wittig reaction between the para-substituted benzaldehydes and the para-boronic acid derivative of the benzyltriphenylphosphonium bromide. This latter was synthesized by the reaction of the p-bromomethylphenylboronic acid with triphenylphosphine in toluene. […] Absorption spectrawere recorded with a Cary 50 UV-Vis spectrophotometer from Varian. Emission spectra were recorded with a Varian Eclipse spectrofluorometer from Varian. In both cases, the measurements were taken at room temperature in a 1 cm quartz cuvette. For all measurements, the absorbances of the solutions were about 0.1 corresponding to a concentration range of 2-3×10^−6 M of the fluorophore. Fluorescence quantum yields were measured against p-quaterphenyl in cyclohexane (ΦF=0.89) for trans-stilbene (ST) and STBA, anthracene in cyclohexane (φF=0.36) for CSTBA and MSTBA and Quinine sulfate in 1N sulfuric acid (ΦF=0.577) for DSTBA.
(§3) where Iacid and Ibase are the intensity limits in the acid and basic region, respectively. Titration curves against sugar were fitted and dissociation constant (KD) values were obtained using the equation: [formula]
(§4) where Io and If are the initial (no sugar) and final (plateau) intensities of the titration curves. All solutions in water and buffer contained also 33.3% […] methanol to avoid any problem due to the aggregation.

[5] = Titration curves against pH (pKa of the boronic acid group) with and without sugar; format: physicochemical; conditions: for pKa: aqueous buffer solutions with methanol
Method: Titration curves against pH were measured in buffer solutions: acetate buffer for pH 4.0-5.5, phosphate buffer for pH 6.0-9.0 and carbonate buffer for pH 10,0-11.0. Titration curves were fitted and pKa (pKa=−log Ka) values were obtained using the equation: [formula]
as §3
(§5) where Io and If are the initial (no sugar) and final (plateau) intensities of the titration curves. […]

[6] = Fluorescence titration curves against sugar (dissociation constant), D-glucose; format: binding
Method: as §2, §3, §5

[7] = Fluorescence titration curves against sugar (dissociation constant), D-fructose; format: binding
Method: as §2, §3, §4

[8] = as above; format: binding; conditions: compounds 4 and 5; phosphate buffer pH 8.0/methanol 1:2 (v/v)
[9] = literature value; read-out: KD D-galactose; cited from earlier work
[10] = cited from earlier work
[11] = cited from earlier work; for decrease of emission intensity after addition of glucose: pH 7.4, literature
[12] = DSTBA, from reference 3; read-out: KD galactose; cited from earlier work
[13] = DSTBA, from reference 3; read-out: KD glucose; cited from earlier work
[14] = DSTBA, from reference 3; read-out: KD fructose; cited from earlier work
[15] = Yoon et al., cited from earlier work
[16] = 30 MHz, read-out: KD, Modulation
[17] = 30 MHz, read-out: KD, Phase Angle
[18] = read-out: KD, Steady State Intensity
[19] = stilbenes, pH 8.0, 33.3% methanol, read-out: KD D-galactose
[20] = stilbenes, 33.3% methanol, 50 mM D-fructose, read-out: pKa +D-fructose (50 mM)
[21] = stilbenes, 33.3% methanol, 50 mM D-glucose, read-out: pKa +D-glucose (50 mM)
[22] = stilbenes, solution contained 33.3% methanol, no sugar, read-out: pKa Alone
[23] = stilbenes, pH 8.0, 33.3% methanol, read-out: KD D-glucose
[24] = stilbenes, pH 8.0, 33.3% methanol, read-out: KD D-fructose
[25] = compounds 4 and 5, phosphate buffer pH 8.0/methanol 1:2 (v/v), read-out: KD galactose
[26] = compounds 4 and 5, 66.6% methanol, 50 mM fructose, read-out: pKa fructose (50 mM)
[27] = compounds 4 and 5, 66.6% methanol, 170 mM glucose, read-out: pKa glucose (170 mM)
[28] = compounds 4 and 5, buffer with 66.6% (v/v) methanol, read-out: pKa no sugar
[29] = compounds 4 and 5, phosphate buffer pH 8.0/methanol 1:2 (v/v), read-out: KD glucose
[30] = compound 6, pH 7.0, phosphate buffer/methanol 2:1

CN(Cc1ccccc1B(O)O)Cc1c2ccccc2cc2ccccc12 [compound 7, 9-[[N-Methyl-N-(o-boronobenzyl)amino]methyl]anthracene]
solubility [1]: relatively low solubility | Log KS, Mean Lifetime [2]: 2.5 (0.994:4) | Log KS, Steady State Intensity [2]: 1.7 (0.993:7) | Log KS, Modulation ([2]; 30 MHz): 2.5 (0.999:6) | Log KS, Phase Angle ([2]; 30 MHz): 2.2 (0.993:5) | Kd [2, 16]: 3.4 mM | Kd [2, 17]: 6.1 mM | Kd ([2]; read-out: KD, Mean Lifetime): 3.2 mM | Kd [2, 18]: 19.3 mM

OB(O)c1ccc(/C=C/c2ccccc2)cc1 [STBA, stilbene-4-boronic acid]
overall decrease of the fluorescence emission after addition of sugar [3]: about 15% | Kd [4, 19]: 6 mM | pKa [5, 20]: 6.4 | pKa [5, 21]: 7.63 | pKa [5, 22]: 8.86 | Kd [6, 23]: 11 mM | Kd [7, 24]: 3.4 mM

COc1ccc(/C=C/c2ccc(B(O)O)cc2)cc1 [MSTBA, 4′-methoxystilbene-4-boronic acid]
Kd [4, 19]: 26 mM | pKa [5, 20]: 6.36 | pKa [5, 21]: 7.88 | pKa [5, 22]: 8.58 | Kd [6, 23]: 43 mM | Kd [7, 24]: 1 mM

N#Cc1ccc(/C=C/c2ccc(B(O)O)cc2)cc1 [CSTBA, 4′-cyanostilbene-4-boronic acid]
Kd [4, 19]: 12.5 mM | pKa [5, 20]: 5.84 | pKa [5, 21]: 7.3 | pKa [5, 22]: 8.17 | Kd [6, 23]: 18.3 mM | Kd ([7]; pH 7.0, read-out: dissociation constant for D-fructose): 3.22 mM | Kd ([7]; pH 7.5, read-out: dissociation constant for D-fructose): 1.19 mM | Kd [7, 24]: 0.65 mM

CN(C)c1ccc(/C=C/C=C/c2ccc(B(O)O)cc2)cc1 [compound 4, 1-(p-Dimethylaminophenyl)-4-(p-boronophenyl)-buta-1,3-diene]
Kd [4, 25]: 5.9 ± 0.6 mM | Kd [8]: 1.12 ± 0.05 mM | pKa [5, 26]: 6.19 ± 0.04 | pKa [5, 27]: 6.97 ± 0.02 | pKa [5, 28]: 8.9 | Kd [6, 29]: 17 ± 2 mM

OB(O)c1ccccc1 [phenylboronic acid]
Kd [9]: 3.6 mM | Kd ([10]; literature value, read-out: KD D-fructose): 0.2 mM | Kd ([11]; literature value, read-out: KD D-glucose): 9.1 mM

CN(C)c1ccc(/C=C/c2ccc(B(O)O)cc2)cc1 [DSTBA, 4′-(dimethylamino)stilbene-4-boronic acid]
Kd [12]: 49 mM | Kd [4, 19]: 49 mM | Kd [13]: 98 mM | Kd [14]: 2.5 mM | pKa [5, 20]: 6.61 | pKa [5, 21]: 8.34 | pKa [5, 22]: 9.14 | Kd [6, 23]: 98 mM | Kd [7, 24]: 2.5 mM

CN(Cc1ccccc1B(O)O)Cc1c2ccccc2c(CN(C)Cc2ccccc2B(O)O)c2ccccc12 [compound 8, 9,10-Bis[[N-methyl-N-(o-boronobenzyl)amino]methyl]anthracene]
solubility [1]: relatively low solubility | Log KS, Mean Lifetime [2]: 4.4 (0.992:11) | Log KS, Steady State Intensity [2]: 3.1 (0.998:12) | Log KS, Modulation ([2]; 30 MHz): 4.1 (0.995:7) | Log KS, Phase Angle ([2]; 30 MHz): 4.5 (0.996:10) | Kd [2, 16]: 0.079 mM | Kd [2, 17]: 0.032 mM | Kd ([2]; read-out: KD, Mean Lifetime): 0.04 mM | Kd [2, 18]: 0.79 mM

OB(O)c1ccc2cc3ccccc3cc2c1 [anthrylboronic acid, anthryl-2-boronic acid]
pKa of complex with fructose ([15]; saturated fructose solution): 5.9 | pKa ([15]; uncomplexed): 8.8 | decrease of emission intensity after addition of fructose ([10]; pH 7.4, literature): 30% | decrease of emission intensity after addition of glucose [11]: about 10% | decrease of emission intensity after addition of glucose ([11]; listed as anthryl-2-boronic acid): 10%

CN(C)c1ccc(-c2cnc(-c3ccc(B(O)O)cc3)o2)cc1 [compound 6, 5-(4′-Dimethylaminophenyl)-2-(4″-boronophenyl)oxazol]
increase of the emission intensity in presence of galactose [4, 30]: about 3 fold | Kd ([4]; compound 6, phosphate buffer/methanol (2:1 v/v) at pH 7.0, read-out: Dissociation constant (KD) for galactose): 14 ± 1 mM | pKa in presence of fructose ([5]; compound 6): 5.6 | pKa in presence of glucose ([5]; compound 6): 6.5 | pKa in absence of sugar ([5]; compound 6, λex=350 nm): 7.8 | increase of the emission intensity in presence of glucose [6, 30]: about 3 fold | Kd ([6]; compound 6, phosphate buffer/methanol (2:1 v/v) at pH 7.0, read-out: Dissociation constant (KD) for glucose): 37 ± 3 mM | increase of the emission intensity in presence of fructose [7, 30]: about 5 fold | Kd ([7]; compound 6, phosphate buffer/methanol (2:1 v/v) at pH 7.0, read-out: Dissociation constant (KD) for fructose): 1.9 ± 0.1 mM

CN(C)c1ccc(/C=C/C=C/C=C/c2ccc(B(O)O)cc2)cc1 [compound 5, 1-(p-dimethylaminophenyl)-6-(p-boronophenyl)-hexa-1,3,5-triene]
Kd [4, 25]: 5.4 ± 0.4 mM | Kd [8]: 0.84 ± 0.03 mM | pKa [5, 26]: 6.1 ± 0.05 | pKa [5, 27]: 6.86 ± 0.02 | pKa [5, 28]: 8.75 | Kd [6, 29]: 15 ± 1 mM
